Experimental data from patent publication US10201532B2, “Compounds and their use” (ALLECRA THERAPEUTICS GMBH, priority 2010, dated 2019).
One block for each compound: values may come before it.

Tests used:
[1] = system: E. coli ATCC 25922 (β-lac-ve); assay: Disk zone of inhibition, antibiotic + Compound-1 on same disk (Methodology 2); type: cell-based, Escherichia coli; conditions: CAZ 30 μg or IPM 10 μg disk alone; ATCC 25922
[2] = system: KPC-3 expressing E. coli (J53 R6206); assay: Synergistic broth micro-dilution MIC (checkerboard); type: cell-based, Escherichia coli; conditions: no BLI
[3] = system: KPC-2 producing K. pneumoniae (ATCC BAA-1705); assay: as above; type: cell-based, Klebsiella pneumoniae
[4] = system: E. coli Ecoli233 (KPC3); assay: Disk zone of inhibition, antibiotic + Compound-1 on same disk (Methodology 2); type: cell-based, Escherichia coli; conditions: CAZ 30 μg or IPM 10 μg disk alone
Text: (§1) In this experiment, Compound-1 is used as a diagnostic reagent for the detection of β-lactamases belonging to the families KPC & ESBL (e.g., SHV18) producing Enterobacteriaceae. A simple set of absorbent paper disks impregnated with antibiotic on agar medium is used for the detection.
(§2) • 0.5 McFarland of the test organism was inoculated at 1:10 dilution on Muller • Hinton Agar plates • Test organisms: Klebsiella pneumoniae (K.p) ATCC BAA-1705, Klebsiella pneumoniae ATCC 700603, Escherichia coli (E.c) Ecoli233 • Carbapenem (e.g., Imipenem [IPM] 10 μg) and cephalosporin (e.g., Ceftazidime [CAZ] 30 μg) paper disks (7 mm) were placed on the inoculated agar plates • Compound-1 (60 μg) disk was placed at a distance of 7 & 10 mm from the carbapenem and cephalosporin disks. • The presence of expressed carbapenemases or ESBLs was measured as the expansion of Imipenem or Ceftazidime's inhibition zones due to synergy in the presence of Compound-1.
(§3) The methodology remains the same as Methodology 1 except the following change • Compound-1 (60 μg) was added on the same disk in combination with a carbapenem (e.g., Imipenem 10 μg) or cephalosporin (e.g., Ceftazidime 30 μg) and placed on the inoculated agar plate. • The presence of the expressed carbapenemases or ESBLs was measured as an increase in Imipenem or Ceftazidime's zone diameter in combination with Compound-1 compared to antibiotic alone. Results

[5] = system: K. pneumoniae ATCC 700603 (SHV18); assay: as above; type: cell-based, Klebsiella pneumoniae; conditions: CAZ 30 μg or IPM 10 μg disk alone
Text: as §1
as §2, with “Compound-1. Results:” for “Compound-1.”
as §3

[6] = system: K. pneumoniae ATCC BAA-1705 (KPC2); assay: as above; type: cell-based, Klebsiella pneumoniae; conditions: CAZ 30 μg or IPM 10 μg disk alone
Text: as §1, §2, §3

[7] = system: K. pneumoniae NCTC 13438 (KPC3); assay: Synergistic broth micro-dilution MIC; type: cell-based, Klebsiella pneumoniae; conditions: BLI at 4 μg/mL
[8] = system: E. coli BAA-200 (SHV-4); assay: MIC of Piperacillin with inhibitor, ESBL isolates; type: cell-based, Escherichia coli
[9] = system: E. cloacae 01 MGH 049 (KPC2, AmpC); assay: Synergistic broth micro-dilution MIC; type: cell-based; conditions: BLI at 4 μg/mL
[10] = system: E. coli BAA-199 (SHV-3); assay: MIC of Piperacillin with inhibitor, ESBL isolates; type: cell-based, Escherichia coli
[11] = system: E. coli Ecoli233 (KPC3); assay: Synergistic broth micro-dilution MIC; type: cell-based, Escherichia coli
[12] = system: P. mirabilis BAA-663 (TEM-89); assay: MIC of Piperacillin with inhibitor, ESBL isolates; type: cell-based
[13] = system: K. pneumoniae 700603 (SHV-18); assay: MIC of Piperacillin with inhibitor, ESBL isolates; type: cell-based, Klebsiella pneumoniae
[14] = system: E. coli BAA-201 (TEM-3); assay: MIC of Piperacillin with inhibitor, ESBL isolates; type: cell-based
[15] = system: K. pneumoniae UMM3 (KPC2); assay: Synergistic broth micro-dilution MIC; type: cell-based, Klebsiella pneumoniae; conditions: BLI at 4 μg/mL
[16] = system: E. coli BAA-197 (TEM-12); assay: MIC of Piperacillin with inhibitor, ESBL isolates; type: cell-based, Escherichia coli
[17] = system: E. coli BAA-198 (TEM-26); assay: MIC of Piperacillin with inhibitor, ESBL isolates; type: cell-based, Escherichia coli

SMILES: CC(C)(O/N=C(\C(=O)N[C@@H]1C(=O)N2C(C(=O)[O-])=C(C[n+]3ccccc3)CS[C@H]12)c1csc(N)n1)C(=O)O [Ceftazidime]
Zone of inhibition (ZOI), antibiotic alone [1]: 25 mm
MIC of antibiotic alone (no BLI) [2]: >32 µg/mL
MIC ([3]; Klebsiella pneumoniae, ATCCBAA1705, no BLI, ATCC BAA-1705, read-out: MIC of antibiotic alone (no BLI)): > 128 µg/mL
Zone of inhibition (ZOI), antibiotic alone [4]: 11 mm
Zone of inhibition (ZOI), antibiotic alone [5]: 12 mm
Zone of inhibition (ZOI), antibiotic alone [6]: 12 mm

MIC of Imipenem in combination with BLI [7]: 64 µg/mL
MIC of Piperacillin with inhibitor ([8]; inhibitor at 1 μg/mL): 32 µg/mL
MIC of Piperacillin with inhibitor ([8]; inhibitor at 2 μg/mL): 8 µg/mL
MIC of Piperacillin with inhibitor ([8]; inhibitor at 4 μg/mL): 4 µg/mL
MIC of Imipenem in combination with BLI [9]: 8 µg/mL
MIC of Imipenem in combination with BLI ([3]; BLI at 4 μg/mL, ATCC BAA-1705): 4 µg/mL
MIC of Imipenem in combination with BLI ([3]; BLI at 16 μg/mL, ATCC BAA-1705): 4 µg/mL
MIC of Piperacillin with inhibitor ([10]; inhibitor at 1 μg/mL): >128 µg/mL
MIC of Piperacillin with inhibitor ([10]; inhibitor at 2 μg/mL): >128 µg/mL
MIC of Piperacillin with inhibitor ([10]; inhibitor at 4 μg/mL): 2 µg/mL
MIC of Imipenem in combination with BLI ([11]; BLI at 4 μg/mL): 4 µg/mL
MIC of Imipenem in combination with BLI ([11]; BLI at 16 μg/mL): 1 µg/mL
MIC of Piperacillin with inhibitor ([12]; inhibitor at 1 μg/mL): 8 µg/mL
MIC of Piperacillin with inhibitor ([12]; inhibitor at 2 μg/mL): 16 µg/mL
MIC of Piperacillin with inhibitor ([12]; inhibitor at 4 μg/mL): >128 µg/mL
MIC of Piperacillin with inhibitor ([13]; inhibitor at 1 μg/mL): 8 µg/mL
MIC of Piperacillin with inhibitor ([13]; inhibitor at 2 μg/mL): 16 µg/mL
MIC of Piperacillin with inhibitor ([13]; inhibitor at 4 μg/mL): 8 µg/mL
MIC of Piperacillin with inhibitor ([14]; inhibitor at 1 μg/mL): 2 µg/mL
MIC of Piperacillin with inhibitor ([14]; inhibitor at 2 μg/mL): 4 µg/mL
MIC of Piperacillin with inhibitor ([14]; inhibitor at 4 μg/mL): 4 µg/mL
MIC of Imipenem in combination with BLI [15]: 2 µg/mL
MIC of Piperacillin with inhibitor ([16]; inhibitor at 1 μg/mL): 4 µg/mL
MIC of Piperacillin with inhibitor ([16]; inhibitor at 2 μg/mL): 4 µg/mL
MIC of Piperacillin with inhibitor ([16]; inhibitor at 4 μg/mL): 4 µg/mL
MIC of Piperacillin with inhibitor ([17]; inhibitor at 1 μg/mL): 4 µg/mL
MIC of Piperacillin with inhibitor ([17]; inhibitor at 2 μg/mL): 4 µg/mL
MIC of Piperacillin with inhibitor ([17]; inhibitor at 4 μg/mL): 4 µg/mL
SMILES: C[n+]1ccn(C[C@@]2(C)[C@H](C(=O)[O-])N3C(=O)C[C@H]3S2(=O)=O)c1 [Compound-12, (2S,3S,5R)-3-Methyl-3-(3-methyl-imidazol-3-ium-1-ylmethyl)-4,4,7-trioxo-4-thia-1-azabicyclo[3.2.0]heptane-2-carboxylate]
Activity with imipenem against the KPC (2 & 3) producing strains, in words ([3]; summary of Table 2, all five strains): improved activity
